From patent publication US8829029B2, “Dual modulators of 5HT2A and D3 receptors” (Hoffmann-La Roche Inc., priority 2008, dated 2014) come the findings set out here.

Assay [1] concerns the target human 5-HT2A serotonin receptor (Homo sapiens (Human), UniProt P28223). Description: Radioligand binding ([3H]-ketanserin) to cloned human 5-HT2A receptor expressed in HEK-293 EBNA cells. The settings on record: membranes of transfected HEK-293 EBNA cells, 1.1 nM [3H]-ketanserin, 1 h at RT. The essentials:
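Membranes from transiently transfected HEK-293 EBNA cells incubated 1 h at RT with 1.1 nM [3H]-ketanserin (5-HT2A, 15 μg protein/well, Tris/MgCl2/EGTA pH 7.4) or 0.5 nM [3H]-spiperone (D3, 7.5 μg/well, Tris/NaCl/MgCl2/KCl/CaCl2 pH 7.4) plus test compound at 10 μM-0.1 nM. Nonspecific binding with 10 μM spiperone; filtration, Ki via Cheng-Prusoff.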

In assay [2] the target is human D3 dopamine receptor (Homo sapiens (Human), UniProt P35462). Briefly: Radioligand binding ([3H]-spiperone) to cloned human D3 receptor expressed in HEK-293 EBNA cells. The settings on record: membranes of transfected HEK-293 EBNA cells, 0.5 nM [3H]-spiperone, 1 h at RT. The essentials:
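Membranes from HEK-293 EBNA cells transiently transfected with human D3 receptor, incubated 1 h at RT with ~0.5 nM [3H]-spiperone and ten compound concentrations (10 μM-0.1 nM); nonspecific binding with 10 μM spiperone. Filtered, scintillation counted; IC50 from four-parameter fit, Ki via Cheng-Prusoff using saturation Kd.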

Chain of human D3 dopamine receptor (P35462 whole entry): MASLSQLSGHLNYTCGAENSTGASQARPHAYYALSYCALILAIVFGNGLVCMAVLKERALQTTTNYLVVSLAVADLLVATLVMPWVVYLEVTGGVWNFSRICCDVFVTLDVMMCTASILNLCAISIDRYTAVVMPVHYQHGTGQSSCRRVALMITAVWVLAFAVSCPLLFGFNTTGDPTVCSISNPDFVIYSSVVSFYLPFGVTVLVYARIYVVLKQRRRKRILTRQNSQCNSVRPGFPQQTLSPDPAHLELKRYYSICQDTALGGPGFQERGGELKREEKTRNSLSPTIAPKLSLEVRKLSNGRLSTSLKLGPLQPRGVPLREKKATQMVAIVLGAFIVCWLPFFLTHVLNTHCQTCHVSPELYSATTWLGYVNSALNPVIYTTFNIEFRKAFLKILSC

For orientation: Ki means a dissociation constant, usually derived from enzyme kinetics or from competition with a known ligand. Turning to `O=C(CO)N[C@H]1CC[C@H](CCN2CCC(c3noc4cc(F)c(F)cc34)CC2)CC1` [Example 67, N-trans-(4-{2-[4-(5,6-Difluoro-benzo[d]isoxazol-3-yl)-piperidin-1-yl]-ethyl}-cyclohexyl)-2-hydroxy-acetamide], the Ki in assay [1] came out at 11.8 nM; in assay [2], 19.9 nM.

Take `O=C(CCO)N[C@H]1CC[C@H](CCN2CCC(c3noc4cc(F)c(F)cc34)CC2)CC1` [Example 68, N-trans-(4-{2-[4-(5,6-Difluoro-benzo[d]isoxazol-3-yl)-piperidin-1-yl]-ethyl}-cyclohexyl)-3-hydroxy-propionamide]: the Ki in assay [1] was determined as 24.8 nM; in assay [2], 11.7 nM.

With `O=C(C[C@H]1CC[C@H](O)CC1)N[C@H]1CC[C@H](CCN2CCC(c3noc4cc(F)c(F)cc34)CC2)CC1` [Example 69, N-trans-(4-{2-[4-(5,6-Difluoro-benzo[d]isoxazol-3-yl)-piperidin-1-yl]-ethyl}-cyclohexyl)-2-(4-hydroxy-cyclohexyl)-acetamide], the Ki in assay [1] amounted to 7.85 nM; in assay [2], 20.9 nM.

With `O=C(C[C@@H]1CC[C@@H](O)C1)N[C@H]1CC[C@H](CCN2CCC(c3noc4cc(F)c(F)cc34)CC2)CC1` [Example 70, N-trans-(4-{2-[4-(5,6-Difluoro-benzo[d]isoxazol-3-yl)-piperidin-1-yl]-ethyl}-cyclohexyl)-2-((1R,3R)-3-hydroxy-cyclopentyl)-acetamide], the Ki is 11.4 nM in assay [1] and 19.8 nM in assay [2].

For `O=C(N[C@H]1CC[C@H](CCN2CCC(c3noc4cc(F)c(F)cc34)CC2)CC1)C1CCOCC1` [Example 71, Tetrahydro-pyran-4-carboxylic acid trans-(4-{2-[4-(5,6-difluoro-benzo[d]isoxazol-3-yl)-piperidin-1-yl]-ethyl}-cyclohexyl)-amide], the Ki in assay [1] amounted to 7.86 nM; in assay [2] it was 18.2 nM.

Turning to `O=C(CC1OCCCO1)N[C@H]1CC[C@H](CCN2CCC(c3noc4cc(F)c(F)cc34)CC2)CC1` [Example 72, N-trans-(4-{2-[4-(5,6-Difluoro-benzo[d]isoxazol-3-yl)-piperidin-1-yl]-ethyl}-cyclohexyl)-2-[1,3]dioxan-2-yl-acetamide], the results for the Ki in assay [1] and in assay [2] were 9.39 nM and 13.5 nM, respectively.

With `CC(=O)N[C@H]1CC[C@H](CCN2CCC(c3noc4cc(C)ccc34)CC2)CC1` [Example 73, N-trans-(4-{2-[4-(6-Methyl-benzo[d]isoxazol-3-yl)-piperidin-1-yl]-ethyl}-cyclohexyl)-acetamide], the Ki in assay [1] turned out to be 16.8 nM; in assay [2], 9.28 nM.

In the case of “N-trans-(4-{2-[4-(6-Chloro-benzo[d]isoxazol-3-yl)-piperidin-1-yl]-ethyl}-cyclohexyl)-2-trans (4-methoxy-cyclohexyl)-acetamide [Example 35]”, the inhibition constant Ki in assay [1] is 9.64 nM; in assay [2], 11.6 nM.
